Some test systems named below: MALME-3M melanoma; U251 CNS; SK-MEL-2 melanoma; MOLT-4 leukemia; NCI-H522 lung; SF-268 CNS; UO-31 renal; SF-539 CNS; HCC-2998 colon; HCT-116 colon.
Assay in all cases: DTP human tumour cell line panel, 48 h

The results in this text go back to PubChem BioAssay (NCI).

Molecules are shown by their SMILES.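 Exposure lasted 48 hours, with cells grown in 96-well plates and compounds tested at five concentrations. GI50: concentration for 50% inhibition of growth. TGI: concentration producing complete growth inhibition.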

As a reminder, the TGI is the concentration giving total growth inhibition. A word on the GI50: it is the concentration that inhibits growth by half.

For `COc1ccccc1/C=C1\CCC(CCN(C)C)(C2=CCCC2)C1=O` (centres undefined), the TGI with MALME-3M melanoma turned out to be 30.3 µM; in the assay on U251 CNS it was 31.1 µM; with SK-MEL-2 melanoma, 35.6 µM; in the assay on MOLT-4 leukemia, 54.3 µM; in the assay on NCI-H522 lung, 27.1 µM; in the assay with SF-268 CNS it was 40.1 µM. In addition, the total growth inhibition concentration (TGI) is 31.4 µM with UO-31 renal, 29.5 µM with SF-539 CNS, 31.9 µM in the assay on HCC-2998 colon and 25.3 µM in the assay with HCT-116 colon.

Consider `O=Nc1c(-c2c(O)[nH]c3ccc([N+](=O)[O-])cc23)[nH]c2ccc(O)cc12`, for which the GI50 in the assay on MALME-3M melanoma is 0.781 µM; in the assay with U251 CNS, 0.325 µM; with SK-MEL-2 melanoma it was 0.293 µM; in the assay with MOLT-4 leukemia, 0.359 µM; in the assay on NCI-H522 lung, 0.38 µM; with SF-268 CNS, 0.474 µM. Besides, the GI50 in the assay on SF-539 CNS is 0.258 µM; in the assay with HCC-2998 colon, 0.836 µM. Moreover, the TGI was 45.3 µM with MALME-3M melanoma; above 35.1 µM in the assay on U251 CNS; 0.757 µM in the assay on SK-MEL-2 melanoma; 4.21 µM with MOLT-4 leukemia; 2.67 µM with NCI-H522 lung; above 100 µM with SF-268 CNS. In addition, the TGI in the assay on SF-539 CNS was 0.827 µM; in the assay on HCC-2998 colon, above 100 µM.

For `CCn1c(C(=O)N(C2CC2)C2CC2)cc2c3c(ncn3C)c(Nc3cc(C)n(C)n3)nc21`, the GI50 with MALME-3M melanoma, in the assay with U251 CNS, in the assay on SK-MEL-2 melanoma, in the assay with MOLT-4 leukemia, with NCI-H522 lung and in the assay with SF-268 CNS was above 100 µM in each case. In addition, the GI50 is above 38.5 µM in the assay with UO-31 renal, above 100 µM with SF-539 CNS, above 100 µM in the assay on HCC-2998 colon and above 100 µM with HCT-116 colon. Besides, the concentration for total growth inhibition (TGI) with MALME-3M melanoma, in the assay with U251 CNS, in the assay on SK-MEL-2 melanoma, in the assay on MOLT-4 leukemia, in the assay on NCI-H522 lung and in the assay on SF-268 CNS was above 100 µM throughout. Besides, the TGI in the assay with UO-31 renal, in the assay on SF-539 CNS, in the assay on HCC-2998 colon and with HCT-116 colon was above 100 µM each time.

On to `COc1ccc(Nc2ncc(Br)c(NCCCNC(=O)C3CCC3)n2)cc1`, for which the GI50 in the assay on MALME-3M melanoma was 24.6 µM; in the assay on U251 CNS, 12.4 µM; in the assay on SK-MEL-2 melanoma it was 22.9 µM; in the assay with MOLT-4 leukemia it was 5.92 µM; with NCI-H522 lung it was 24 µM; in the assay on SF-268 CNS it was 4.78 µM. The GI50 in the assay on UO-31 renal was 2.55 µM; in the assay on SF-539 CNS, 3.69 µM; with HCC-2998 colon it was 21.7 µM; in the assay with HCT-116 colon, 8.31 µM. The TGI in the assay with MALME-3M melanoma is above 100 µM; in the assay with U251 CNS, above 100 µM; with SK-MEL-2 melanoma, 55.7 µM; in the assay on MOLT-4 leukemia it was above 100 µM; with NCI-H522 lung it was above 100 µM; in the assay on SF-268 CNS, 41.6 µM. For the same molecule, the TGI in the assay on UO-31 renal was determined as 13.5 µM; in the assay on SF-539 CNS, 18.5 µM; in the assay with HCC-2998 colon it was 58.1 µM; in the assay with HCT-116 colon it was 82.3 µM.

Take `OC1c2ccccc2C2(O)C1C(c1ccccc1)C(c1ccccc1)C2(O)c1ccccc1` (centres undefined): the TGI was 26.9 µM with MALME-3M melanoma; 23.1 µM in the assay on U251 CNS; 23.3 µM in the assay on SK-MEL-2 melanoma; 22.8 µM with MOLT-4 leukemia; 31.7 µM in the assay with NCI-H522 lung; 68.8 µM with SF-268 CNS. The values for the TGI in the assay on UO-31 renal, with SF-539 CNS and in the assay with HCC-2998 colon were 55.5 µM, 26 µM and 28.6 µM, respectively.

For the molecule `O=C1c2ccc([N+](=O)[O-])cc2-c2c1c1ccccc1c(=O)n2CCCNCCCNCCCn1c2c(c3ccc([N+](=O)[O-])cc3c1=O)C(=O)c1ccccc1-2`, the GI50 with MALME-3M melanoma was 5.51 µM; in the assay with U251 CNS, 3.42 µM; in the assay on SK-MEL-2 melanoma it was 17.3 µM; with MOLT-4 leukemia, 0.129 µM; with NCI-H522 lung, 7.1 µM; in the assay with SF-268 CNS, 0.988 µM. For the same molecule, the GI50 is 10.4 µM in the assay with UO-31 renal, 1.96 µM in the assay with SF-539 CNS, 3.08 µM with HCC-2998 colon and 0.933 µM in the assay on HCT-116 colon. For the same molecule, the TGI came to 41.7 µM in the assay on MALME-3M melanoma; 15.3 µM in the assay on U251 CNS; 62.3 µM with SK-MEL-2 melanoma; 2.11 µM in the assay on MOLT-4 leukemia; 32.3 µM in the assay on NCI-H522 lung; 12.8 µM in the assay with SF-268 CNS. Moreover, the TGI amounted to 33.8 µM in the assay on UO-31 renal, 7 µM with SF-539 CNS, 9.77 µM with HCC-2998 colon and 2.91 µM with HCT-116 colon.

On to `CN1CCN(c2ccc(NC(=O)c3nc4ccc5[nH]ncc5c4c4c3CCCC4)cc2C(F)(F)F)CC1`, for which the GI50 with MALME-3M melanoma is 0.76 µM; with U251 CNS it was 0.926 µM; with SK-MEL-2 melanoma, 7.33 µM; in the assay with MOLT-4 leukemia, 1.09 µM; in the assay with NCI-H522 lung it was 0.856 µM; with SF-268 CNS, 3.89 µM. Moreover, the GI50 is 0.843 µM with UO-31 renal, 0.851 µM in the assay with SF-539 CNS, 1.1 µM with HCC-2998 colon and 0.814 µM in the assay with HCT-116 colon. For the same molecule, the TGI with MALME-3M melanoma is 1.64 µM; with U251 CNS, 1.77 µM; in the assay on SK-MEL-2 melanoma, 19.1 µM; in the assay on MOLT-4 leukemia, 3.08 µM; in the assay on NCI-H522 lung it was 1.88 µM; with SF-268 CNS, 19.3 µM. The TGI was determined as 1.65 µM with UO-31 renal, 1.61 µM in the assay with SF-539 CNS, 2.99 µM in the assay on HCC-2998 colon and 1.5 µM in the assay on HCT-116 colon.

In the case of `O=C(/C=C/c1ccccc1)CC1OC(=O)c2ccccc21` (centres undefined), the TGI with MALME-3M melanoma, in the assay with U251 CNS, in the assay on SK-MEL-2 melanoma, in the assay with MOLT-4 leukemia, in the assay on NCI-H522 lung and in the assay with SF-268 CNS was above 100 µM throughout. Further, the concentration for total growth inhibition (TGI) in the assay with UO-31 renal, in the assay with SF-539 CNS, in the assay on HCC-2998 colon and in the assay on HCT-116 colon was above 100 µM throughout.

As to `CC1(C)CC[C@H](Nc2ncc(C(F)(F)F)c(-c3c[nH]c4c(P(C)(C)=O)c(C#N)ccc34)n2)CN1`, the GI50 in the assay on MALME-3M melanoma was below 0.0128 µM; in the assay on U251 CNS it was 0.0771 µM; in the assay on SK-MEL-2 melanoma, 0.283 µM; in the assay with MOLT-4 leukemia it was 0.214 µM; in the assay on SF-268 CNS, 1.17 µM; in the assay with UO-31 renal it was 0.377 µM. The values for the GI50 with SF-539 CNS, in the assay on HCC-2998 colon and in the assay on HCT-116 colon were 0.245 µM, 0.0375 µM and below 0.01 µM, respectively. Besides, the TGI in the assay on MALME-3M melanoma was 13 µM; in the assay on U251 CNS it was 23.7 µM; with SK-MEL-2 melanoma it was 6.9 µM; in the assay with MOLT-4 leukemia it was above 23.2 µM; in the assay with NCI-H522 lung, 14.4 µM; in the assay on SF-268 CNS, 12.9 µM. The TGI with UO-31 renal came to 5.11 µM; with SF-539 CNS, 4.73 µM; in the assay on HCC-2998 colon, 11.6 µM; in the assay on HCT-116 colon, 12.1 µM.
